Common to all, as to experiment: Post-emergence efficacy, glasshouse spray test
What all share (type): in vivo

Experiment [1] deals with Eleusine indica (ELEIN). The following applies: Eleusine indica, post-emergence, 312 h, evaluated after 13 days, read-out: Control of weed species ELEIN after post-emergence application (100=total damage to plant; 0=no damage to plant); for pest or weed control at 1000 g/ha: application rate 1000 g/Ha; for pest or weed control at 500 g/ha: application rate 500 g/Ha. Here is the method: (§1) Seeds of a variety of test species were sown in standard soil in pots. After cultivation for 14 days (post-emergence) under controlled conditions in a glasshouse (at 24/16° C., day/night; 14 hours light; 65% humidity), the plants were sprayed with an aqueous spray solution derived from the dissolution of the technical active ingredient formula (I) in a small amount of acetone and a special solvent and emulsifier mixture referred to as IF50 (11.12% Emulsogen EL360 TM+44.44% N-methylpyrrolidone+44.44% Dowanol DPM glycol ether), to create a 50 g/l solution which was then diluted to required concentration using 0.25% or 1% Empicol ESC70 (Sodium lauryl ether sulphate)+1% ammonium sulphate as diluent. The test plants were then grown in a glasshouse under controlled conditions (at 24/16° C., day/night; 14 hours light; 65% humidity) and watered twice daily. After 13 days the test was evaluated (100=total damage to plant; 0=no damage to plant).
(§2) Ipomoea hederacea (IPOHE), Euphorbia heterophylla (EPHHL), Chenopodium album (CHEAL), Amaranthus palmeri (AMAPA), Lolium perenne (LOLPE), Digitaria sanguinalis (DIGSA), Eleusine indica (ELEIN), Echinochloa crus-galli (ECHCG), Setaria faberi (SETFA)

In experiment [2] the test system is Chenopodium album (CHEAL). The following applies: Chenopodium album, post-emergence, 312 h, evaluated after 13 days, read-out: Control of weed species CHEAL after post-emergence application (100=total damage to plant; 0=no damage to plant); for pest or weed control at 1000 g/ha: application rate 1000 g/Ha; for pest or weed control at 500 g/ha: application rate 500 g/Ha. Here is the method: as §1, §2

Experiment [3] deals with Digitaria sanguinalis (DIGSA). To be noted: Digitaria sanguinalis, post-emergence, 312 h, evaluated after 13 days, read-out: Control of weed species DIGSA after post-emergence application (100=total damage to plant; 0=no damage to plant); for pest or weed control at 1000 g/ha: application rate 1000 g/Ha; for pest or weed control at 500 g/ha: application rate 500 g/Ha. How it is done:
as §1, §2

The test system of experiment [4] is Lolium perenne (LOLPE). To be noted: Lolium perenne, post-emergence, 312 h, evaluated after 13 days, read-out: Control of weed species LOLPE after post-emergence application (100=total damage to plant; 0=no damage to plant); for pest or weed control at 1000 g/ha: application rate 1000 g/Ha; for pest or weed control at 500 g/ha: application rate 500 g/Ha. Here is the method: as §1, §2

The test system of experiment [5] is Ipomoea hederacea (IPOHE). To be noted: Ipomoea hederacea, post-emergence, 312 h, evaluated after 13 days, read-out: Control of weed species IPOHE after post-emergence application (100=total damage to plant; 0=no damage to plant); for pest or weed control at 1000 g/ha: application rate 1000 g/Ha; for pest or weed control at 500 g/ha: application rate 500 g/Ha. Here is the method:
as §1, §2

Experiment [6] relates to Euphorbia heterophylla (EPHHL). The following applies: Euphorbia heterophylla, post-emergence, 312 h, evaluated after 13 days, read-out: Control of weed species EPHHL after post-emergence application (100=total damage to plant; 0=no damage to plant); for pest or weed control at 1000 g/ha: application rate 1000 g/Ha; for pest or weed control at 500 g/ha: application rate 500 g/Ha. How it is done: as §1, §2

Experiment [7] deals with Setaria faberi (SETFA). To be noted: Setaria faberi, post-emergence, 312 h, evaluated after 13 days, read-out: Control of weed species SETFA after post-emergence application (100=total damage to plant; 0=no damage to plant); for pest or weed control at 1000 g/ha: application rate 1000 g/Ha; for pest or weed control at 500 g/ha: application rate 500 g/Ha. Here is the method:
as §1, §2

For experiment [8], the system named is Echinochloa crus-galli (ECHCG). To be noted: Echinochloa crus-galli, post-emergence, 312 h, evaluated after 13 days, read-out: Control of weed species ECHCG after post-emergence application (100=total damage to plant; 0=no damage to plant); for pest or weed control at 1000 g/ha: application rate 1000 g/Ha; for pest or weed control at 500 g/ha: application rate 500 g/Ha. Here is the method:
as §1, §2

The source of these data is patent US20220046923A1, “HERBICIDAL CINNOLINIUM COMPOUNDS” (SYNGENTA CROP PROTECTION AG, priority 2018, published 2022).

On to `Cc1ccc2n[n+](CCS(=O)(=O)[O-])cc(C)c2c1` [Compound A33], for which the pest or weed control at 1000 g/ha came to 30% in experiment [1]; 10% in experiment [2]; 40% in experiment [3]; 0% in experiment [4]; 30% in experiment [5]; 60% in experiment [6]. Further, the values for the pest or weed control at 1000 g/ha in experiment [7] and in experiment [8] were 40% and 50%, respectively.

As for `O=S(=O)([O-])CC[n+]1ccc2cc(Br)ccc2n1` [Compound A34], the pest or weed control at 1000 g/ha in experiment [1] amounted to 30%; in experiment [2], 20%; in experiment [3], 40%; in experiment [4], 10%; in experiment [5], 20%; in experiment [6], 40%. In addition, the pest or weed control at 1000 g/ha in experiment [7] is 20%; in experiment [8], 40%.

In the case of `Cc1c[n+](CCS(=O)(=O)[O-])nc2c(C)cccc12` [Compound A35], the pest or weed control at 1000 g/ha was 20% in experiment [1]; 0% in experiment [2]; 30% in experiment [3]; 10% in experiment [4]; 20% in experiment [5]; 30% in experiment [6]. Besides, the pest or weed control at 1000 g/ha was determined as 0% in experiment [7] and 20% in experiment [8].

As for `Cc1cccc2cc[n+](CCS(=O)(=O)[O-])nc12` [Compound A36], the pest or weed control at 1000 g/ha came out at 90% in experiment [1]; 80% in experiment [3]; 20% in experiment [4]; 30% in experiment [5]; 30% in experiment [6]; 40% in experiment [7]. In addition, the pest or weed control at 1000 g/ha in experiment [8] came to 70%.

Consider `O=C(O)c1cccc(C[n+]2ccc3ccccc3n2)c1` [Compound A91], for which the pest or weed control at 1000 g/ha in experiment [1] worked out at 20%; in experiment [2], 20%; in experiment [3], 20%; in experiment [4] it was 10%; in experiment [5] it was 10%; in experiment [6], 40%. Also, the pest or weed control at 1000 g/ha in experiment [7] worked out at 20%; in experiment [8] it was 40%.

For the compound `O=S(=O)(O)c1ccc(C[n+]2ccc3ccccc3n2)cc1` [Compound A92], the pest or weed control at 1000 g/ha in experiment [1] came out at 30%; in experiment [2], 0%; in experiment [3], 20%; in experiment [4] it was 10%; in experiment [5], 40%; in experiment [6] it was 50%. Also, the pest or weed control at 1000 g/ha amounted to 10% in experiment [7] and 30% in experiment [8].

Consider `CN(C)C(=O)c1ccc2n[n+](CCS(=O)(=O)[O-])ccc2c1` [Compound A101], for which the pest or weed control at 500 g/ha in experiment [1] was 80%; in experiment [2] it was 60%; in experiment [3], 70%; in experiment [4] it was 20%; in experiment [5] it was 40%; in experiment [6], 70%. In addition, the pest or weed control at 500 g/ha in experiment [7] turned out to be 70%; in experiment [8], 60%.

For `CN(C)C(=O)c1cccc2cc[n+](CCS(=O)(=O)[O-])nc12` [Compound A102, 2-[8-(dimethylcarbamoyl)cinnolin-2-ium-2-yl]ethanesulfonate], the pest or weed control at 500 g/ha in experiment [1] is 100%; in experiment [2], 100%; in experiment [3], 80%; in experiment [4] it was 30%; in experiment [5], 70%; in experiment [6], 60%. Further, the pest or weed control at 500 g/ha in experiment [7] amounted to 90%; in experiment [8], 70%.

With `CC(=O)Nc1ccc2n[n+](CCS(=O)(=O)[O-])ccc2c1` [Compound A104], the pest or weed control at 125 g/ha turned out to be 80% in experiment [1] (application rate 125 g/Ha); 30% in experiment [2] (application rate 125 g/Ha); 60% in experiment [3] (application rate 125 g/Ha); 20% in experiment [4] (application rate 125 g/Ha); 10% in experiment [5] (application rate 125 g/Ha); 50% in experiment [6] (application rate 125 g/Ha). Further, the pest or weed control at 125 g/ha in experiment [7] (application rate 125 g/Ha) stood at 70%; in experiment [8] (application rate 125 g/Ha), 60%.

For the compound `CC(=O)Nc1ccc2cc[n+](CCS(=O)(=O)[O-])nc2c1` [Compound A105], the pest or weed control at 500 g/ha in experiment [1] was determined as 80%; in experiment [2], 70%; in experiment [3], 60%; in experiment [4], 20%; in experiment [5], 20%; in experiment [6], 30%. The pest or weed control at 500 g/ha was 70% in experiment [7] and 50% in experiment [8].

With `CN(C)C(=O)c1ccc2cc[n+](CCS(=O)(=O)[O-])nc2c1` [Compound A106], the pest or weed control at 500 g/ha was determined as 100% in experiment [1]; 80% in experiment [2]; 70% in experiment [3]; 30% in experiment [4]; 20% in experiment [5]; 30% in experiment [6]. Besides, the pest or weed control at 500 g/ha in experiment [7] was determined as 100%; in experiment [8] it was 80%.
